One test relates to Pyricularia oryzae. The test is described as follows: whole plant or invertebrate. The format is in vivo. The following applies: 100 is total disease control, 0 is no disease control; for Rice Blast (RB) protectant fungicide data, percent control: 300 g/ha, greenhouse; for pest or weed control at 300 g/ha: Pyricularia oryzae, topical, 144 h, read-out: Rice Blast (RB) protectant fungicide data, percent control, protectant, 300 g/ha, greenhouse.

For another test, the system named is Sphaerotheca fuliginea. In words: Cucumber Powdery Mildew (CPM) protectant test in the greenhouse. It is filed as in vivo. The following applies: 100 is total disease control, 0 is no disease control; for Cucumber Powdery Mildew (CPM) protectant fungicide data, percent control: 300 g/ha; for pest or weed control at 300 g/ha: Podosphaera fuliginea, topical, 168 h, read-out: Cucumber Powdery Mildew (CPM) protectant fungicide data, percent control. On the procedure: Plants used in the fungicide testing program were grown in 2-¼-inch (5.7-cm). square pots containing RediEarth propagation substrate. The plants were raised under greenhouse conditions. The rice plants were 12-days-old and cucumbers were 13-days-old at the time of spraying with chemical treatments.
The sample of the experimental chemical was weighed and dissolved in an acetone-methanol-water solution (A/M/W at 1:1:2 ratio by volume).
After sprayer calibration, the test solutions were poured into the fungicide sprayer. The fungicide sprayer contains three spray nozzles, located approximately 10 cm above and to the sides of the plants. The spray produced by the nozzles results in uniform coverage of both the upper and lower parts of the plant leaves. After spraying, the treated plants were placed in a drying chamber for 4 hours, prior to sorting.
Cucumber Powdery Mildew (CPM), caused by the fungus Sphaerotheca fuliginea, was maintained on large cucumber plants. For inoculum preparation, five to eight leaves depending on size, completely covered with powdery mildew spores, were collected. The leaves were placed in a glass jar and covered with 500 ml of water, containing 5 drops of Tween-80. The material was filtered through two layers of cheesecloth to remove leaf fragments. The spore count was adjusted to 2×10^5 spores per ml.
Cucumber plants, cv. “Bush Champion,” were used for this test. The plants were thinned to one per pot after the cotyledons were fully developed. Two days before the test, the small leaves and meristem region were removed, leaving only the cotyledons and one large true leaf.
The protectant tests required that the cucumber plants be inoculated 1 day after spraying with the chemical treatment. The plants were inoculated with a hand-held spray bottle with the suspension of fungal spores. The leaves were lightly misted on the upper surface from two different spray directions. Disease development occurred in the greenhouse.
After seven days, the plants were evaluated for percent of disease control. The results are reported as percent control; 100 is total disease control, 0 is no disease control.

With `FC(F)(F)Cn1nc(-c2cccc(Cl)c2)ncc1=S` [Compound 246], the “Rice Blast (RB) protectant fungicide data, percent control” value (“Rice Blast … percent control” below) in the test on Pyricularia oryzae is 100 percent control. The “Cucumber Powdery Mildew (CPM) protectant fungicide data, percent control” value (“Cucumber Powdery Mildew … percent control” for short) in the test with Sphaerotheca fuliginea stood at 0 percent control.

With `CCCCOc1ccc(C2=NN(CCC#N)C(=O)CN2)cc1` [Compound 160], the “Rice Blast … percent control” value in the test with Pyricularia oryzae came to 75 percent control. Also, the “Cucumber Powdery Mildew … percent control” value in the test on Sphaerotheca fuliginea came out at 0 percent control.

Turning to `CCC#CCn1nc(-c2ccc(Cl)cc2)nc(C)c1=O` [Compound 237], the “Rice Blast … percent control” value in the test on Pyricularia oryzae was 0 percent control. In the test with Sphaerotheca fuliginea, the “Cucumber Powdery Mildew … percent control” value was determined as 95 percent control.

`O=C1CNC(c2cccc(Br)c2)=NN1CC(F)(F)F` [Compound 212]: the “Rice Blast … percent control” value in the test on Pyricularia oryzae was found to be 98 percent control. Besides, the “Cucumber Powdery Mildew … percent control” value in the test with Sphaerotheca fuliginea was 85 percent control.

`CC(=O)N1CC(=O)N(CC(F)(F)F)N=C1c1cc(Cl)cc(Cl)c1` [Compound 72]: the “Rice Blast … percent control” value in the test with Pyricularia oryzae was 75 percent control. For the same molecule, the “Cucumber Powdery Mildew … percent control” value in the test with Sphaerotheca fuliginea worked out at 50 percent control.

For the molecule `CCc1ccc(C2=NN(CC(F)(F)F)C(=O)CN2)cc1` [Compound 150], in the test on Pyricularia oryzae, the “Rice Blast … percent control” value is on record as 100 percent control. Besides, in the test on Sphaerotheca fuliginea, the “Cucumber Powdery Mildew … percent control” value is reported as 50 percent control.

For `O=C1CNC(c2ccc(Cl)c(Cl)c2)=NN1` [Compound 174], the “Rice Blast … percent control” value in the test on Pyricularia oryzae stood at 75 percent control. Also, the “Cucumber Powdery Mildew … percent control” value with Sphaerotheca fuliginea is 0 percent control.

For the molecule `CCCCN1N=C(c2ccc(-c3ccc(C4=NN(CCCC)C(=O)CN4)cc3)cc2)NCC1=O` [Compound 231], the pest or weed control at 300 g/ha in the test on Pyricularia oryzae was found to be 85%; with Sphaerotheca fuliginea, 0%.

In the case of `CCCCn1nc(-c2sc(C)nc2C(F)(F)F)ncc1=O` [Compound 268], the “Rice Blast … percent control” value in the test with Pyricularia oryzae is 0 percent control. Further, the “Cucumber Powdery Mildew … percent control” value in the test on Sphaerotheca fuliginea worked out at 75 percent control.

With `CCCCn1nc(-c2cccc(Cl)c2)ncc1=O` [Compound 277], the “Rice Blast … percent control” value in the test with Pyricularia oryzae was found to be 95 percent control. Further, the “Cucumber Powdery Mildew … percent control” value with Sphaerotheca fuliginea amounted to 0 percent control.

In the case of `C=C(Cl)CN1N=C(c2cc(Cl)cc(Cl)c2)NCC1=O` [Compound 65], the “Rice Blast … percent control” value with Pyricularia oryzae is listed as 95 percent control. In addition, the “Cucumber Powdery Mildew … percent control” value with Sphaerotheca fuliginea amounted to 50 percent control.

On to `CCCCOc1ccc(C2=NN(CC(F)(F)F)C(=O)CN2)cc1` [Compound 155], for which, in the test with Pyricularia oryzae, the “Rice Blast … percent control” value is 90 percent control. Also, the “Cucumber Powdery Mildew … percent control” value with Sphaerotheca fuliginea was determined as 85 percent control.

As to `CS(=O)(=O)N1CC(=O)N(CC(F)(F)F)N=C1c1ccc(Cl)cc1` [Compound 42], the “Rice Blast … percent control” value with Pyricularia oryzae came to 99 percent control. For the same molecule, the “Cucumber Powdery Mildew … percent control” value in the test with Sphaerotheca fuliginea is 50 percent control.

For the molecule `O=C1CN(CCCl)C(c2cc(Cl)cc(Cl)c2)=NN1CC(F)(F)F` [Compound 126], the “Rice Blast … percent control” value with Pyricularia oryzae is listed as 50 percent control. For the same molecule, in the test on Sphaerotheca fuliginea, the “Cucumber Powdery Mildew … percent control” value is given as 0 percent control.

For the molecule `CCCCn1nc(-c2cc(Cl)ccc2Cl)ncc1=O` [Compound 269], the “Rice Blast … percent control” value in the test on Pyricularia oryzae was 99 percent control. Further, the “Cucumber Powdery Mildew … percent control” value in the test with Sphaerotheca fuliginea is on record as 0 percent control.

As for `N#CCN1N=C(c2ccc(Cl)cc2)NCC1=O` [Compound 60], the “Rice Blast … percent control” value in the test on Pyricularia oryzae turned out to be 75 percent control. In the test with Sphaerotheca fuliginea, the “Cucumber Powdery Mildew … percent control” value is recorded as 0 percent control.

For the molecule `CCCCN1N=C(c2ccc(Cl)c(Cl)c2)N(C(=S)SC)CC1=O` [Compound 12, 1-n-butyl-3-(3,4-dichlorophenyl)-4-methylthiothiocarbonyl-4,5-dihydro-1,2,4-triazin-6-one], the pest or weed control at 300 g/ha is 95% in the test with Pyricularia oryzae and 0% in the test with Sphaerotheca fuliginea.

Consider `CCOC(=O)N1N=C(c2cccc(Cl)c2)NCC1=O` [Compound 198], for which the “Rice Blast … percent control” value in the test on Pyricularia oryzae is 80 percent control. Further, in the test on Sphaerotheca fuliginea, the “Cucumber Powdery Mildew … percent control” value is listed as 0 percent control.

Regarding `O=C1CNC(c2ccc(Cl)cc2)=NN1c1ccccn1` [Compound 59], in the test on Pyricularia oryzae, the “Rice Blast … percent control” value is 50 percent control. In the test with Sphaerotheca fuliginea, the “Cucumber Powdery Mildew … percent control” value was 0 percent control.

In the case of `CCCCCN1N=C(c2ccc(Cl)c(Cl)c2)NCC1=O` [Compound 197], the “Rice Blast … percent control” value in the test with Pyricularia oryzae is recorded as 99 percent control. Also, the “Cucumber Powdery Mildew … percent control” value with Sphaerotheca fuliginea was 75 percent control.

As to `CCCCN1N=C2C=CC(c3ccc(Cl)cc3)=NN2CC1=O` [Compound 229], the pest or weed control at 300 g/ha in the test on Pyricularia oryzae is 0%; in the test with Sphaerotheca fuliginea, 50%.

Turning to `O=C1CNC(c2ccccc2F)=NN1CC(F)(F)F` [Compound 96], the “Rice Blast … percent control” value in the test on Pyricularia oryzae was 50 percent control. Moreover, the “Cucumber Powdery Mildew … percent control” value in the test on Sphaerotheca fuliginea is 75 percent control.

On to `O=C1CN(C(=O)Oc2ccccc2)C(c2cc(Cl)cc(Cl)c2)=NN1CC(F)(F)F` [Compound 193], for which the “Rice Blast … percent control” value in the test with Pyricularia oryzae came to 80 percent control. Moreover, in the test with Sphaerotheca fuliginea, the “Cucumber Powdery Mildew … percent control” value is on record as 0 percent control.

Regarding `N#CCCN1N=C(c2ccc(-c3ccc([N+](=O)[O-])cc3)cc2)NCC1=O` [Compound 166], the “Rice Blast … percent control” value in the test on Pyricularia oryzae is given as 75 percent control. Moreover, the “Cucumber Powdery Mildew … percent control” value with Sphaerotheca fuliginea is 0 percent control.

Regarding `COC(=O)SN1CC(=O)N(CC(F)(F)F)N=C1c1cc(Cl)cc(Cl)c1` [Compound 14, 1-(2,2,2-trifluoroethyl)-3-(3,5-dichlorophenyl)-4-(methoxycarbonylthio)-4,5-dihydro-1,2,4-triazin-6-one], the values for the pest or weed control at 300 g/ha in the test on Pyricularia oryzae and in the test with Sphaerotheca fuliginea were 100% and 85%, respectively.

For the molecule `C#CCN1N=C(c2ccc(F)c(Br)c2)NCC1=O` [Compound 218], the “Rice Blast … percent control” value in the test with Pyricularia oryzae is recorded as 98 percent control. Moreover, the “Cucumber Powdery Mildew … percent control” value with Sphaerotheca fuliginea came out at 80 percent control.

For the molecule `CCC#CCN1CC(=O)N(CCCC)N=C1c1ccc(Cl)c(Cl)c1` [Compound 180], the “Rice Blast … percent control” value with Pyricularia oryzae is 95 percent control. The “Cucumber Powdery Mildew … percent control” value in the test on Sphaerotheca fuliginea stood at 90 percent control.

Regarding `O=C1CNC(c2ccccn2)=NN1Cc1ccccc1` [Compound 185], in the test with Pyricularia oryzae, the “Rice Blast … percent control” value turned out to be 80 percent control. The “Cucumber Powdery Mildew … percent control” value in the test on Sphaerotheca fuliginea was determined as 75 percent control.

With `CCCOc1ccc(-c2ncc(=O)n(CC(F)(F)F)n2)cc1` [Compound 281], in the test with Pyricularia oryzae, the “Rice Blast … percent control” value is reported as 85 percent control. In addition, the “Cucumber Powdery Mildew … percent control” value in the test with Sphaerotheca fuliginea is recorded as 95 percent control.

For `Cc1cc(C2=NN(CC(F)(F)F)C(=O)CN2)ccc1[N+](=O)[O-]` [Compound 157], in the test with Pyricularia oryzae, the “Rice Blast … percent control” value is recorded as 98 percent control. Moreover, the “Cucumber Powdery Mildew … percent control” value in the test on Sphaerotheca fuliginea was 0 percent control.

In the case of `C=COC(=O)N1CC(=O)N(CCCC)N=C1c1cccc(Cl)c1Cl` [Compound 136], the “Rice Blast … percent control” value in the test with Pyricularia oryzae came to 100 percent control. Besides, the “Cucumber Powdery Mildew … percent control” value in the test with Sphaerotheca fuliginea was determined as 80 percent control.

Regarding `CN1N=C(c2ccc(C(F)(F)F)cc2)NCC1=O` [Compound 122], the “Rice Blast … percent control” value with Pyricularia oryzae came to 75 percent control. The “Cucumber Powdery Mildew … percent control” value in the test with Sphaerotheca fuliginea worked out at 75 percent control.

As to `C#CCN1CC(=O)N(CC#C)N=C1c1cccc(C(F)(F)F)c1` [Compound 87], in the test with Pyricularia oryzae, the “Rice Blast … percent control” value is recorded as 90 percent control. For the same molecule, the “Cucumber Powdery Mildew … percent control” value in the test on Sphaerotheca fuliginea is recorded as 0 percent control.

Take `C#CCN1CC(=O)N(CC(F)(F)F)N=C1c1cc(Cl)cc(Cl)c1` [Compound 169]: the “Rice Blast … percent control” value with Pyricularia oryzae is 50 percent control. In the test on Sphaerotheca fuliginea, the “Cucumber Powdery Mildew … percent control” value is 0 percent control.

Take `O=C1CNC(c2cccc(F)c2)=NN1CC(F)(F)F` [Compound 84]: the “Rice Blast … percent control” value with Pyricularia oryzae was 80 percent control. In the test on Sphaerotheca fuliginea, the “Cucumber Powdery Mildew … percent control” value came out at 85 percent control.

As to `CCOC(=O)Cn1nc(-c2ccc(Cl)cc2)ncc1=O` [Compound 250], the “Rice Blast … percent control” value with Pyricularia oryzae is 90 percent control. For the same molecule, in the test with Sphaerotheca fuliginea, the “Cucumber Powdery Mildew … percent control” value worked out at 50 percent control.

For the origin of these results see patent US7494996B2 (priority 2000, dated 2009).
